According to ChEMBL document CHEMBL3885861, “Open TG-GATES”:

Organism: Rattus norvegicus
Assay: Open TG-GATES - Regimen: Daily Repeat
Assay type: toxicity, organism-based, Sprague-Dawley
Set-up: regimen Daily Repeat, gender Male, age 6 weeks
Conditions: in vivo, po, 1000 mg/kg, route gavage, dose level High; for APTT / Bas / Eos / Fbg / Hb / Ht / Lym / MCH / MCHC / MCV / Mono / Neu / PT / Plat / RBC / Ret / WBC: tissue Blood; for KIDNEY_L / KIDNEY_R / KIDNEY_TOTAL: tissue Kidney; for LIVER: tissue Liver; for A/G / ALP / ALT / AST / BUN / CRE / Ca / Cl / DBIL / GLC / IP / K / LDH / Na / PL / RALB / TBIL / TC / TG / TP / gamma-GTP: tissue Plasma

## CC(=O)[C@@]1(O)CC[C@H]2[C@@H]3C=C(Cl)C4=CC(=O)CC[C@]4(C)[C@H]3CC[C@@]21C [CHLORMADINONE]
72 h, time 3 day
  TERMINAL_BW: 236.9 g
  APTT: 28 s
  Bas: 0%
  Eos: 1.2%
  Fbg: 321.4 mg/dL
  Hb: 13.9 g/dL
  Ht: 42%
  Lym: 76.8%
  MCH: 20.2 pg
  MCHC: 33.1%
  MCV: 61 fL
  Mono: 3%
  Neu: 18.2%
  PT: 14.4 s
  Plat: 126.4 x10_4/uL
  RBC: 690 x10_4/ul
  Ret: 6.9%
  WBC: 122 x10_2/uL
  KIDNEY_L: 1 g
  KIDNEY_R: 1 g
  KIDNEY_TOTAL: 2 g
  LIVER: 12.4 g
  A/G: 1.2
  ALP: 1434.6 IU/L
  ALT: 53 IU/L
  AST: 71 IU/L
  BUN: 17.4 mg/dL
  CRE: 0.2 mg/dL
  Ca: 11 mg/dL
  Cl: 105.2 meq/L
  DBIL: 0 mg/dL
  GLC: 191.8 mg/dL
  IP: 7.7 mg/dL
  K: 4.8 meq/L
  LDH: 190.2 IU/L
  Na: 140.4 meq/L
  PL: 198.4 mg/dL
  RALB: 3.3 g/dL
  TBIL: 0.004 mg/dL
  TC: 95.2 mg/dL
  TG: 154.2 mg/dL
  TP: 6 g/dL
  gamma-GTP: 2 IU/L
[…], time 7 day
  TERMINAL_BW: 245 g
  APTT: 30 s
  Bas: 0%
  Eos: 0.8%
  Fbg: 327.6 mg/dL
  Hb: 15.1 g/dL
  Ht: 44.5%
  Lym: 84.4%
  MCH: 20.2 pg
  MCHC: 34%
  MCV: 59.5 fL
  Mono: 2.2%
  Neu: 11.8%
  PT: 15 s
  Plat: 127.9 x10_4/uL
  RBC: 748.8 x10_4/ul
  Ret: 3.8%
  WBC: 120.3 x10_2/uL
  KIDNEY_L: 1 g
  KIDNEY_R: 1 g
  KIDNEY_TOTAL: 1.9 g
  LIVER: 11 g
  A/G: 1.3
  ALP: 1456.8 IU/L
  ALT: 45.8 IU/L
  AST: 71.4 IU/L
  BUN: 19.6 mg/dL
  CRE: 0.2 mg/dL
  Ca: 10.8 mg/dL
  Cl: 106.8 meq/L
  DBIL: 0 mg/dL
  GLC: 187.2 mg/dL
  IP: 7.2 mg/dL
  K: 4.6 meq/L
  LDH: 194 IU/L
  Na: 140 meq/L
  PL: 163.8 mg/dL
  RALB: 3.3 g/dL
  TBIL: 0.006 mg/dL
  TC: 83.2 mg/dL
  TG: 136 mg/dL
  TP: 6 g/dL
  gamma-GTP: 2 IU/L
[…], time 14 day
  TERMINAL_BW: 286.4 g
  APTT: 28.9 s
  Bas: 0%
  Eos: 1%
  Fbg: 322 mg/dL
  Hb: 15.2 g/dL
  Ht: 45%
  Lym: 80%
  MCH: 19.7 pg
  MCHC: 33.9%
  MCV: 58.1 fL
  Mono: 2.8%
  Neu: 14.4%
  PT: 14.7 s
  Plat: 100.3 x10_4/uL
  RBC: 774.6 x10_4/ul
  Ret: 2.6%
  WBC: 106.2 x10_2/uL
  KIDNEY_L: 1.1 g
  KIDNEY_R: 1.1 g
  KIDNEY_TOTAL: 2.2 g
  LIVER: 13.1 g
  A/G: 1.2
  ALP: 1187.6 IU/L
  ALT: 45.2 IU/L
  AST: 71.2 IU/L
  BUN: 18.6 mg/dL
  CRE: 0.2 mg/dL
  Ca: 10.7 mg/dL
  Cl: 107.6 meq/L
  DBIL: 0 mg/dL
  GLC: 195 mg/dL
  IP: 6.8 mg/dL
  K: 4.4 meq/L
  LDH: 160.8 IU/L
  Na: 142 meq/L
  PL: 171.2 mg/dL
  RALB: 3.3 g/dL
  TBIL: 0.004 mg/dL
  TC: 81.2 mg/dL
  TG: 177.4 mg/dL
  TP: 6.1 g/dL
  gamma-GTP: 2 IU/L
[…], time 28 day
  TERMINAL_BW: 342.2 g
  APTT: 29.7 s
  Bas: 0%
  Eos: 1%
  Fbg: 308 mg/dL
  Hb: 15.8 g/dL
  Ht: 45.5%
  Lym: 86.4%
  MCH: 18.2 pg
  MCHC: 34.9%
  MCV: 52.1 fL
  Mono: 2.2%
  Neu: 9.6%
  PT: 15.1 s
  Plat: 91.7 x10_4/uL
  RBC: 873 x10_4/ul
  Ret: 1.9%
  WBC: 94.9 x10_2/uL
  KIDNEY_L: 1.2 g
  KIDNEY_R: 1.3 g
  KIDNEY_TOTAL: 2.5 g
  LIVER: 14.6 g
  A/G: 1
  ALP: 1076 IU/L
  ALT: 58.4 IU/L
  AST: 70.8 IU/L
  BUN: 17.4 mg/dL
  CRE: 0.2 mg/dL
  Ca: 10.5 mg/dL
  Cl: 105.2 meq/L
  DBIL: 0 mg/dL
  GLC: 194.8 mg/dL
  IP: 6.1 mg/dL
  K: 3.9 meq/L
  LDH: 156 IU/L
  Na: 142 meq/L
  PL: 190.4 mg/dL
  RALB: 3.4 g/dL
  TBIL: 0.006 mg/dL
  TC: 97.6 mg/dL
  TG: 161.6 mg/dL
  TP: 6.6 g/dL
  gamma-GTP: 2.6 IU/L
